One may read the Ki as a dissociation constant, usually derived from enzyme kinetics or from competition with a known ligand. By Emax is commonly meant the size of the effect at its maximum, as opposed to the concentration needed.

Assay [1] has as its target T1, Dopamine D2 Receptor (hD2L) (Homo sapiens, UniProt P14416).
T1 construct: expressed in transfected cells; host or cells: CHO cells (CHO-hD2L)
The experiment in a line: Dopamine D2 Receptor Binding Assay ([3H]spiperone, CHO-hD2L membranes). Conditions: [3H]spiperone 0.4 nM, HCl salt tested. The protocol:
1) Dopamine D2 Receptor Binding Assay
[^3H]Spiperone binding to a membrane preparation from CHO-hD2L cells was carried out in 250 μL of 50 mM Tris-HCl buffer containing 100 mM NaCl, 1 mM MgCl2 and 1% DMSO at pH 7.4. Duplicate samples containing (in order of addition) the test compound, 0.4 nM [^3H]spiperone and approximately 12 μg protein were incubated for 120 min at room temperature. Bound radioligand was separated by rapid filtration under reduced pressure through Whatman GF/B glass fiber filters previously treated with 0.3% polyethyleneimine (PEI). Radioactivity retained on the filter was determined by liquid scintillation spectrophotometry. Specific binding determined in the presence of 1 mM haloperidol was 95%.

In assay [2] the target is T2, Serotonin 1A (5-HT1A) Receptor (Homo sapiens, UniProt P08908).
T2 construct: expressed in transfected cells; host or cells: HeLa cells
T2 sequence (P08908 1-422): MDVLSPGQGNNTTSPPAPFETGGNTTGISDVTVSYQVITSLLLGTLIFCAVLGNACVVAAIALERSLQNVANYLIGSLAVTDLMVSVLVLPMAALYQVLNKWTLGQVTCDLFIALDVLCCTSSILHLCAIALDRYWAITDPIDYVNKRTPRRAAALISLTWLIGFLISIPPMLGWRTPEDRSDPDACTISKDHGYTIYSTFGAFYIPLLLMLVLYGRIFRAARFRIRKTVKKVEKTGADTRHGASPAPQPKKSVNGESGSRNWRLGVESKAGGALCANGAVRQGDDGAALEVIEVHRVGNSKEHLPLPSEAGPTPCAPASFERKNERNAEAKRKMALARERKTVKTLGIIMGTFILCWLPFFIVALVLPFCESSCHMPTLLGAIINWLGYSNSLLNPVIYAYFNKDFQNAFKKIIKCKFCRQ
The experiment in a line: Serotonin 1A (5-HT1A) Receptor Binding Assay ([3H]8-OH-DPAT, transfected HeLa membranes). Conditions: [3H]8-OH-DPAT 2.0 nM, transfected HeLa cell membranes; HCl salt tested. How it is done:
2) Serotonin 1A (5-HT1A) Receptor Binding Assay
The assay was conducted in membranes prepared from HeLa cells transfected with the cDNA for […] receptors using [^3H] 8-hydroxy-2-(di-n-propylamino)-tetraline ([^3H] 8-OH-DPAT, final concentration 2.0 nM) as reference […] receptor agonist. Assay buffer consisted of 50 mM Tris-HCl with 10 mM MgSO4, 0.5 mM EDTA and 0.1% ascorbic acid, at pH 7.4 (250 μL total volume). Triplicate samples containing (in order of addition) the test compound, 100× in 100% DMSO, [^3H] 8-OH-DPAT and cell homogenate was incubated for 2 hr at room temperature. Experiments were terminated by rapid filtration through Whatman GF/B glass fiber filters soaked in assay buffer with 0.3% PEI by washing three timnes with 1 mL of wash buffer (50 mM Tris-HCl, pH 7.4) using a Brandel MLR-96T cell harvester. Specific binding (85%) was determined in the presence of 10 μM 8-OH-DPAT.

Assay [3] has as its target T3, D2 receptor (CHO pro-5 cells) (Homo sapiens, UniProt P14416).
T3 construct: expressed in transfected cells; host or cells: CHO pro-5 cells
The experiment in a line: [3H]Thymidine Uptake Assay for Dopamine D2 Intrinsic Activity. It counts as cell-based. Conditions: relative to 1 μM Quinpirole classified as 100% intrinsic activity; HCl salt tested. The protocol:
3) [^3H]Thymidine Uptake Assay for Dopamine D2 Intrinsic Activity
The assay was conducted using CHO pro-5 cells containing the D2 receptor and conventional 96-well sterile plates. Serum was removed from the cells by washing the cells twice with 200 μL of serum-free media. 90 μL serum-free media was added to each well. The plates ware incubated for two to three hours. 10 μL of serum-containing media, as a positive control, vehicle (serum-free media), antagonist control (haloperidol), or the test compound, and standards (10 μL of a 10 μM solution for a final concentration of 1 μM) in serum-free media were added to wells. The plates were returned to the incubator. Eighteen hours later [^3H]thymidine was added (0.5 μCi/well in 10 μL of serum-free media) and the plates were returned to the incubator. Four hours later trypsin (0.25%) was added (100 μL/well). The plates were returned to the incubator, once again. One hour later the assay was terminated by rapid filtration through Whatman GF/C glass fiber filters. Filters were washed four times with […] of 50 mM Tris-HCl pH 7.0 buffer, for example, using a Brandel MLR-96T cell harvester. Radioactivity remaining on the filters was estimated with a Wallac 1205 Betaplate liquid scintillation counter (50% efficiency). Intrinsic activity is defined as total uptake (1 μM Quinpirole) minus serum-free media (no uptake). […]

Assay [4] concerns the target T4, h5-HT1A (CHO p-5 cells) (Homo sapiens, UniProt P08908).
T4 construct: expressed in transfected cells
T4 sequence (P08908 1-422): T2 sequence (P08908 1-422)
The experiment in a line: [3H]Thymidine Uptake Assay for Serotonin 1A Intrinsic Activity. Type of assay: cell-based. To be noted: relative to 1 μM (+)-8-OH-DPAT classified as 100% response; HCl salt tested. The protocol:
4) [^3H]Thymidine Uptake Assay for Serotonin 1A Intrinsic Activity
CHO p-5 cells transfected with h5-HT1A cDNA were seeded into 96-well plates at a density of approximately […] cells/well. These were grown for 3 days at 37° C. in an incubator with alpha minimum essential medium (αMEM) and 10% fetal calf serum containing penicillin (100 U/mL) and streptomycin (100 μg/mL). The wells were then rinsed by washing twice with 200 μL of serum-free media, and 90 μL serum-free media was added to each well. The plates were incubated for two to three hours, then 10 μL of serum-containing media (positive control), vehicle (10 μL DMSO), negative control (10 μL of an antagonist in DMSO) or different concentrations of the test compound and standards (10 μL DMSO solution) in serum-free media were added to appropriate wells. The plates were incubated for 18 hrs. Then [^3H]thymidine was added (0.5 μCi/well in 10 μL of serum-free media) after which the plates were returned to the incubator. Four hours later, trypsin (0.25%) was added (100 μL/well), and plates were returned again to the incubator. The assay was terminated 1 hr later by rapid filtration through Whatman GF/C glass fiber filters. […] Radioactivity remaining on the filters was estimated with a Wallac 1205 Betaplate liquid scintillation counter (50% efficiency). […]

T1 sequence (P14416 whole entry): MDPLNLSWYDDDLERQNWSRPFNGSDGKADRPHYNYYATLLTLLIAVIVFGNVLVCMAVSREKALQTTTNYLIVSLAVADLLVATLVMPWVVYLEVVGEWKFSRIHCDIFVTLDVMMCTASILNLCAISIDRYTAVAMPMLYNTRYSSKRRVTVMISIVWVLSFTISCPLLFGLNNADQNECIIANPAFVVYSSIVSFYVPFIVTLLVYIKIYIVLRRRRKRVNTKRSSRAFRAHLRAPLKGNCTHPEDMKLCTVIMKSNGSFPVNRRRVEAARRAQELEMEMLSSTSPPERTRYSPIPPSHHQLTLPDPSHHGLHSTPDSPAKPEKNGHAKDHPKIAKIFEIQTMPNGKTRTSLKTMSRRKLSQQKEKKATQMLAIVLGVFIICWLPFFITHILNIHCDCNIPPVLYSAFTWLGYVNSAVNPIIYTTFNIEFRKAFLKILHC
T3 sequence (P14416 whole entry): as above

Turning to `O=c1ccc2ccc(OCCCCN3CCN(c4cccc(Cl)c4C(F)(F)F)CC3)nc2[nH]1` [compound of formula (I), 7-(4-{4-[3-chloro-2-(trifluoromethyl)phenyl]piperazine-1-yl}butoxy)-[1,8]-naphthyridin-2(1H)-one], the Ki in assay [1] worked out at 3.9 nM; in assay [2] it was 4 nM. The maximum response (Emax) in assay [3] was found to be 55%; in assay [4] it was 90%.

Source of the values: patent US20080167319A1, “7-(4-(4-[3-CHLORO-2-(TRIFLUOROMETHYL)PHENYL]PIPERAZIN-1-YL)BUTOXY)-[1,8]-NAPHTHYRIDIN-2(1H)-ONE” (Pfizer Inc., priority 2007, published 2008).
